The source of these data is patent US20190116833A1, “FEED ADDITIVE COMPOSITIONS” (priority 2017, published 2019).

Series [1] can be described thus: Post-weaning pig growth performance, SMBS vs SMBS + formulated yeast, 2-phase feeding (Example 7). Type of series: in vivo. The source says: A total of 972 pigs were used to determine the effect of sodium metabisulfite (SMBS) or SMBS plus formulated yeast on weanling pig growth performance. Upon arrival pigs were sorted to pens with 27 pigs per pen. Pigs were weighed on pen basis. Pens within block were randomly assigned to one of 3 dietary treatments (1 control and 2 experimental diets; Table 17) in a randomized complete block design. This will result in 12 pens for each treatment for evaluation of growth performance, fecal scores, and health status.
This experiment was conducted for approximately 22 days in a 2-phase feeding program (Table 18) immediately after weaning. Feed was provided through the FeedLogic® system allowing collection of feed intake data by pen.

A short description of series [2]: Growth performance of early weaned pigs, SMBS titration (Example 3). The series is classed as in vivo. The following applies: in words. The source says: A total of 1,296 weanling pigs were used to determine the impact of […] on growth performance in 19 to 20 day old pigs. The ratio of same-sow source pens was equalized within treatments. The number of barrows and gilts was balanced within the pen (either 13 […] or 14 […] per pen). Upon arrival weanling pigs were sorted to pens (48 pens with 27 pigs per pen) and weighed as a complete pen of pigs. Pens within block were randomly assigned to one of 4 dietary treatments (1 control and 3 experimental diets; Table 6) in a randomized complete block design. Diets containing testing products were made by mixing the testing products into the basal diet (Table 7).
Pig weights were taken at placement and at the end of each diet phase (day 9 and 23). Feed weights were collected daily and the data was used to calculate ADG, ADFI and F/G for both diet phases and for the entire experimental period (23 days). Blood samples were on day 0 and 23 of the study from one barrow in each pen. Each pen was selected at the beginning of the study, identified with an ear tag, and sampled again at the end of the study. 8.5 mL blood was collected and allowed to clot on ice for at least 1.5 hr and centrifuged at 2,000×g for 13 min (4° C.). Fecal scores for each pen were collected on d 3, 5, 7, and 10 using the following scale: 0=none; 1=mild; 2=substantial; 3=severe (Citation 1: Marquardt et al., 1999).

Marks after values point to notes of the source that are not given here.

Turning to `O=S([O-])S(=O)(=O)[O-].[Na+].[Na+]` [SMBS, sodium metabisulfite], in series [1] (Phase 1 + 2, 22 days), the ADFI was 0.78^cd lb/day; the ADG was found to be 0.54 lb/day; the “ADG, change versus Control” value was “(+10.2%)^b”; the “F:G” value is 1.45. In series [1] (Phase 1 + 2, 22 days), the “F:G, change versus Control” value is “(−6.5%)^b”; the Mortality is reported as 0.6%; the Total removal is reported as 2.2%. In addition, in series [1] (Phase 1, 8 days), the ADFI was found to be 0.46 lb/day, the ADG is 0.16^d lb/day and the “G:F” value is on record as 0.35^d. In addition, in series [1] (Phase 2, 14 days), the ADFI was 0.96^ab lb/day, the ADG is recorded as 0.76^b lb/day and the “F:G” value was 1.27^b. Further, the “BW end of Phase 1” value in series [1] (end of Phase 1, 8 days) amounted to 13.4 lb. In addition, the “BW end of Phase 2” value in series [1] (end of Phase 2, 14 days) was 24.1^b lb. Further, the “Start BW” value in series [1] (start of experiment (baseline)) came to 11.8 lb. Moreover, the “ADG and F/G” value in series [2] (increasing levels, both phases of the study) was “linear (P<0.05) improvements”. For the same molecule, in series [2] (titrating from 0 to 10 lb/ton), the ADG entry is recorded as “Linear increase” and the F/G result is given as “Linear decrease”.
